Active and inactive are the calls of the source. The calls are words filed in the database; no cut-off is given here.
What was measured:
[1] = system: Rattus norvegicus; assay: Hypoglycemic activity in 18 hrs fasted Wistar albino rat assessed as reduction of blood glucose level at 10 mg/kg, po after 4 hrs (reference value: 97.13 +/- 2.89 mg/dl); type: functional
[2] = system: Rattus norvegicus; assay: Hypoglycemic activity in 18 hrs fasted Wistar albino rat assessed as reduction of blood glucose level at 10 mg/kg, po after 6 hrs (reference value: 101.01 +/- 1.60 mg/dl); type: functional
[3] = system: Rattus norvegicus; assay: Hypoglycemic activity in 18 hrs fasted Wistar albino rat assessed as reduction of blood glucose level at 10 mg/kg, po after 2 hrs (reference value: 101.03 +/- 1.93 mg/dl); type: functional
[4] = system: Rattus norvegicus; assay: Hypoglycemic activity in over night fasted Wistar albino rat assessed as reduction of blood glucose level at 10 mg/kg, po administered 30 mins before glucose challenge measured after 120 mins by intraperitoneal glucose tolerance test (reference value: 101.07 +/- 8.98 mg/dl); type: functional
[5] = system: Rattus norvegicus; assay: Hypoglycemic activity in over night fasted Wistar albino rat assessed as reduction of blood glucose level at 10 mg/kg, po administered 30 mins before glucose challenge measured after 90 mins by intraperitoneal glucose tolerance test (reference value: 94.44 +/- 6.99 mg/dl); type: functional
[6] = system: Rattus norvegicus; assay: Hypoglycemic activity in over night fasted Wistar albino rat assessed as reduction of blood glucose level at 10 mg/kg, po administered 30 mins before glucose challenge measured after 60 mins by intraperitoneal glucose tolerance test (reference value: 106.07 +/- 13.98 mg/dl); type: functional
[7] = system: Rattus norvegicus; assay: Hypoglycemic activity in over night fasted Wistar albino rat assessed as reduction of blood glucose level at 10 mg/kg, po administered 30 mins before glucose challenge measured after 30 mins by intraperitoneal glucose tolerance test (reference value: 109.28 +/- 20.53 mg/dl); type: functional
[8] = system: Rattus norvegicus; assay: Antidiabetic activity in streptozotocin-nicotinamide-induced diabetic model of Wistar albino rat assessed as reduction of blood glucose level at 10 mg/kg, po after 8 hrs relative to control; type: functional
[9] = system: Rattus norvegicus; assay: Antidiabetic activity in streptozotocin-nicotinamide-induced diabetic model of Wistar albino rat assessed as reduction of blood glucose level at 10 mg/kg, po after 6 hrs relative to control; type: functional
[10] = system: Rattus norvegicus; assay: Hypolipidemic activity in Wistar albino rat assessed as reduction of total cholesterol level at 10 mg/kg, po administered for 14 days measured on day 14 after 1 to 8 hrs relative to control; type: functional
[11] = system: Rattus norvegicus; assay: Antidiabetic activity in streptozotocin-nicotinamide-induced diabetic model of Wistar albino rat assessed as reduction of blood glucose level at 10 mg/kg, po after 4 hrs relative to control; type: functional
[12] = system: Hepatocyte; assay: Cytotoxicity against rat primary hepatocytes after 6 hrs; type: cell-based
[13] = system: Rattus norvegicus; assay: Hypolipidemic activity in Wistar albino rat assessed as reduction of serum triglyceride level at 10 mg/kg, po administered for 14 days measured on day 14 after 1 to 8 hrs relative to control; type: functional
[14] = molecular target: T1, Peroxisome proliferator-activated receptor gamma (Homo sapiens) (UniProt P37231); assay: Agonist activity at human GAL4-fused PPARgamma LBD expressed in HEK293T cells co-expressing DBD at 1 uM by luciferase based transactivation assay relative to control; type: cell-based; settings: HEK-293T
T1 sequence (whole entry): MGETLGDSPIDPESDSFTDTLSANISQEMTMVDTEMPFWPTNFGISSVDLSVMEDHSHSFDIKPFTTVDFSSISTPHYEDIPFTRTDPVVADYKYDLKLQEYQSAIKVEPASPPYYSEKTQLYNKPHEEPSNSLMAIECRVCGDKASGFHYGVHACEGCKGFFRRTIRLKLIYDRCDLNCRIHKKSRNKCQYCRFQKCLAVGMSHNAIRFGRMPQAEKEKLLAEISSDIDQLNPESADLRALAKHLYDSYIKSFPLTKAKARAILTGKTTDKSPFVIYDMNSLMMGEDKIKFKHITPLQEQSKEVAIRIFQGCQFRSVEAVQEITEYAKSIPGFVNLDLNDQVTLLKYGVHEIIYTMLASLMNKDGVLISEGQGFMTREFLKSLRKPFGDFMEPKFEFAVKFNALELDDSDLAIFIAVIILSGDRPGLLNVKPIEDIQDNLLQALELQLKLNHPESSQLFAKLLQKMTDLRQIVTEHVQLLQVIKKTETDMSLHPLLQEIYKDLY

[15] = system: Rattus norvegicus; assay: Antidiabetic activity in Wistar albino rat assessed as reversal of diabetic-induced SGOT level in liver at 10 mg/kg, po administered for 14 days measured on day 14 relative to control; type: functional
[16] = system: Rattus norvegicus; assay: Antidiabetic activity in streptozotocin-nicotinamide-induced diabetic model of Wistar albino rat assessed as reduction of blood glucose level at 10 mg/kg, po after 2 hrs relative to control; type: functional
[17] = system: Rattus norvegicus; assay: Antidiabetic activity in Wistar albino rat assessed as reversal of diabetic-induced SGPT level in liver at 10 mg/kg, po administered for 14 days measured on day 14 relative to control; type: functional
[18] = system: Rattus norvegicus; assay: Antidiabetic activity in streptozotocin-nicotinamide-induced diabetic model of Wistar albino rat assessed as reduction of blood glucose level at 10 mg/kg, po administered for 14 days measured on day 14 after 1 to 8 hrs relative to control; type: functional
[19] = system: Rattus norvegicus; assay: Antidiabetic activity in Wistar albino rat assessed as reversal of diabetic-induced muscle wasting by measuring increase in body weight at 10 mg/kg, po administered for 14 days measured on day 14 relative to control; type: functional
[20] = system: Rattus norvegicus; assay: Antidiabetic activity in streptozotocin-nicotinamide-induced diabetic model of Wistar albino rat assessed as reduction of blood glucose level at 10 mg/kg, po after 1 hr relative to control; type: functional
[21] = system: Hepatocyte; assay: Cytotoxicity against rat primary hepatocytes after 16 hrs; type: cell-based
[22] = system: Rattus norvegicus; assay: Antidiabetic activity in streptozotocin-nicotinamide-induced diabetic model of Wistar albino rat assessed as reduction of blood glucose level at 10 mg/kg, po administered for 14 days measured on day 7 after 1 to 8 hrs relative to control; type: functional
[23] = system: Rattus norvegicus; assay: Antidiabetic activity in streptozotocin-nicotinamide-induced diabetic model of Wistar albino rat assessed as granulated pancreatic islets with prominent hyperplasticity at 10 mg/kg, po administered for 14 days measured on day 14 relative to control; type: functional, organism-based; parameters: dose 10 mg/kg

SMILES	Activity [1]	Activity [2]	Activity [3]	Activity [4]	Activity [5]	Activity [6]	Activity [7]	further results
O=[N+]([O-])c1cc(S(=O)(=O)N2CCOCC2)cc2c1Nc1ccccc1O2	61.56 mg/dL	65.27 mg/dL	59.35 mg/dL	–	–	–	–	–
CC(C)N(C(C)C)S(=O)(=O)c1cc2c(c([N+](=O)[O-])c1)Nc1ccccc1O2	63.05 mg/dL	69.44 mg/dL	67.5 mg/dL	–	–	–	–	–
O=[N+]([O-])c1cc(S(=O)(=O)NCc2ccco2)cc2c1Nc1ccccc1O2	86.36 mg/dL	100.76 mg/dL	96.21 mg/dL	83.89 mg/dL	80 mg/dL	81.89 mg/dL	115.43 mg/dL	–
O=[N+]([O-])c1cc(S(=O)(=O)NC2CCCCC2)cc2c1Nc1ccccc1O2	85.63 mg/dL	90.2 mg/dL	90.22 mg/dL	–	–	–	–	–
O=[N+]([O-])c1cc(S(=O)(=O)Nc2ccc(O)cc2)cc2c1Nc1ccccc1O2	44.65 mg/dL	66.14 mg/dL	46.34 mg/dL	98.91 mg/dL	78.1 mg/dL	95.4 mg/dL	102.43 mg/dL	Activity [8]: 161.4 mg/dL; Activity [9]: 143.3 mg/dL; Activity [10]: 59.2 mg/dL; Activity [11]: 131.4 mg/dL; IC50 [12]: 343 µM; Activity [13]: 63.2 mg/dL; fold change (FC) [14]: 15.5; Activity [15]: 47.2 U/dl; Activity [16]: 116.4 mg/dL; Activity [17]: 44.8 U/dl; Activity [18]: 145.6 mg/dL; Activity [19]: 242 g; Activity [20]: 158.6 mg/dL; IC50 [21]: 274 µM; Activity [22]: 165.8 mg/dL; Activity [23]: Active
CC(NS(=O)(=O)c1cc2c(c([N+](=O)[O-])c1)Nc1ccccc1O2)c1ccccc1 (stereo not given)	77.74 mg/dL	94.28 mg/dL	78.26 mg/dL	–	–	–	–	–
COc1ccc(Cl)cc1C(=O)NCCc1ccc(S(=O)(=O)NC(=O)NC2CCCCC2)cc1 [GLYBURIDE]	63.73 mg/dL	69.01 mg/dL	90.2 mg/dL	91.78 mg/dL	77.5 mg/dL	89 mg/dL	107.85 mg/dL	Activity [8]: 151.9 mg/dL; Activity [9]: 127.2 mg/dL; Activity [10]: 57.8 mg/dL; Activity [11]: 107.5 mg/dL; Activity [13]: 61 mg/dL; Activity [15]: 45.8 U/dl; Activity [16]: 101.9 mg/dL; Activity [17]: 42 U/dl; Activity [18]: 88.3 mg/dL; Activity [19]: 244 g; Activity [20]: 147.2 mg/dL; Activity [22]: 93.3 mg/dL; Activity [23]: Active
O=[N+]([O-])c1cc(S(=O)(=O)Nc2ccccc2O)cc2c1Nc1ccccc1O2	85 mg/dL	88.88 mg/dL	71.38 mg/dL	–	–	–	–	–
O=[N+]([O-])c1cc(S(=O)(=O)Nc2cccc(F)c2)cc2c1Nc1ccccc1O2	87.88 mg/dL	93.94 mg/dL	95.45 mg/dL	–	–	–	–	–
CCCNS(=O)(=O)c1cc2c(c([N+](=O)[O-])c1)Nc1ccccc1O2	88.7 mg/dL	98.7 mg/dL	75.48 mg/dL	–	–	–	–	–
CN(CCOc1ccc(CC2SC(=O)NC2=O)cc1)c1ccccn1 (stereo not given) [ROSIGLITAZONE]	–	–	–	–	–	–	–	IC50 [12]: 225 µM; IC50 [21]: 165 µM
CC(C)c1ccc(NS(=O)(=O)c2cc3c(c([N+](=O)[O-])c2)Nc2ccccc2O3)cc1	86.45 mg/dL	91.74 mg/dL	74.28 mg/dL	106 mg/dL	98 mg/dL	96.66 mg/dL	124.33 mg/dL	–
